Measurements reported in patent US12558399B2, “Isocyclosporin A for topical treatment of ocular diseases” (DOMPE' FARMACEUTICI S.P.A., priority 2021, dated 2026).
One block for each compound: values may come before it.

Assays:
TRPV3 = biological target: T1, TRPV3 (Homo sapiens, UniProt Q8NET8); test: FLIPR assay, TRPV3 inhibition; type: cell-based
T1 sequence (Q8NET8 1-790): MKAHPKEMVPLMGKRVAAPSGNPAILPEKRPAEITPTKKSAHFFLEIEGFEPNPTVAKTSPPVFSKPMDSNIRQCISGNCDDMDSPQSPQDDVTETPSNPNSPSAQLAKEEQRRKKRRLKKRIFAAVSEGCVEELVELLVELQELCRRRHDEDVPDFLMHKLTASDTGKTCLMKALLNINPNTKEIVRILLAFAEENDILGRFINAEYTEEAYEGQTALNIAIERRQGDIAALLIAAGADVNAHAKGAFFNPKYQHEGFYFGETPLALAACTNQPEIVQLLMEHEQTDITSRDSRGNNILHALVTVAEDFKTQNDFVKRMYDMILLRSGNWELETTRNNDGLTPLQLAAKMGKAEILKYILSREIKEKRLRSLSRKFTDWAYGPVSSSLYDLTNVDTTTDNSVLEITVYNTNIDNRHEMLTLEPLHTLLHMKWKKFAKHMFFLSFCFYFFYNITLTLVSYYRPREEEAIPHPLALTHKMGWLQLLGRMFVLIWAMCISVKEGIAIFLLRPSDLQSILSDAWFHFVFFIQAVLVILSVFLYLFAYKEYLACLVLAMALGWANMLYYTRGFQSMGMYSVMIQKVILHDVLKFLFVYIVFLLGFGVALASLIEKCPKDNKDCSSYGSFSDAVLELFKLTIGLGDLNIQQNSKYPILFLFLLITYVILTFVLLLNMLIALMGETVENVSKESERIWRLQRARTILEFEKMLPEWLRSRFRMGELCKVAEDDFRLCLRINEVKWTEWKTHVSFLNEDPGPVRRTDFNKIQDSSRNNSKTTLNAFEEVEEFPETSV
Text: The FLIPR assay is used to screen ion channel targets using membrane permeable fluorescent dyes. In particular, ion channel targets with significant Ca permeability, produce an increase in intracellular calcium that can be measured using calcium-sensitive dyes (Michelle R. Arkin et al. FLIPR™ Assays for GPCR and Ion Channel Targets. Assay Guidance Manual [Internet]. Bethesda (MD): Eli Lilly & Company and the National Center for Advancing Translational Sciences; 2004).
(§1) TRPV3 is an ionic channel that plays an important role in itching and inflammation, which are two characterizing aspects of ocular surface diseases such as VKC and AKC.
(§2) In details, human TRP cells are trypsinized, counted and seeded in black, clear-bottomed 96 well plates at a density of 50,000 cells per well and incubated overnight. Next day, media is removed from cell plates and 25 μl assay buffer is added. Red membrane potential or Calcium 5 dye solution (10 μl) is added to the wells and incubated at 37° C. for 1 hour. TRPV3, TRPML2 and TRPC4 are tested using the membrane potential dye.
(§3) Dye solution is made up in assay buffer. Compound dilutions are performed in 100% DMSO or dH2O then transferred to intermediate dilutions (5% DMSO/assay buffer or 5% dH2O/assay buffer) for a short time (<10 minutes) just before adding to the cell plate.
The plates are placed in the FLIPR and fluorescence monitored every 1.52 seconds. After 20 seconds 10 μl of the appropriate standard agonist is added and the fluorescence monitored for 5 minutes at ex/em: 488 nm/510-570 nm.
Reference agonists and antagonists have been tested against each channel to check that the value is within the acceptable range in order to validate the assays.
Percentage activation and inhibition values of the test compound and reference compounds has been evaluated.

tear secretion = test: Tear secretion by modified Schirmer test in scopolamine-treated mice; type: in vivo; conditions: mouse, day 22 and day 25, compared between treated groups
Protocol: In details, 15 mice (N=5 per group) were randomly assigned at baseline to 3 groups and dry eye was induced by treatment with a subcutaneous injection protocol of 0.5 mg/0.2 ml scopolamine hydrobromide, as previously described (Yeh S et al. Invest Ophthalmol Vis Sci, 2003, 44 (1): 124-9). […] In the treatment groups, ten microliters of the test formulations were instilled in each mouse three times a day in both eyes starting at Day 1 after the first scopolamine injection for 25 days. The treatments were encoded, and the group allocation was blinded to the technician administering the treatment, and to the researcher assessing the outcome of the experiment. Group identification was uncovered at the end of the analysis. Tear secretion was also measured in all animals by modified Schirmer test at day 22 and at day 25, as described in Rossi S. et al. Arch Ital Biol. 2012 March; 150 (1): 15-21.

TRPML2 = biological target: T2, TRPML2 (Homo sapiens, UniProt Q8IZK6); test: FLIPR assay, TRPML2 inhibition; type: cell-based
T2 sequence (Q8IZK6 1-566): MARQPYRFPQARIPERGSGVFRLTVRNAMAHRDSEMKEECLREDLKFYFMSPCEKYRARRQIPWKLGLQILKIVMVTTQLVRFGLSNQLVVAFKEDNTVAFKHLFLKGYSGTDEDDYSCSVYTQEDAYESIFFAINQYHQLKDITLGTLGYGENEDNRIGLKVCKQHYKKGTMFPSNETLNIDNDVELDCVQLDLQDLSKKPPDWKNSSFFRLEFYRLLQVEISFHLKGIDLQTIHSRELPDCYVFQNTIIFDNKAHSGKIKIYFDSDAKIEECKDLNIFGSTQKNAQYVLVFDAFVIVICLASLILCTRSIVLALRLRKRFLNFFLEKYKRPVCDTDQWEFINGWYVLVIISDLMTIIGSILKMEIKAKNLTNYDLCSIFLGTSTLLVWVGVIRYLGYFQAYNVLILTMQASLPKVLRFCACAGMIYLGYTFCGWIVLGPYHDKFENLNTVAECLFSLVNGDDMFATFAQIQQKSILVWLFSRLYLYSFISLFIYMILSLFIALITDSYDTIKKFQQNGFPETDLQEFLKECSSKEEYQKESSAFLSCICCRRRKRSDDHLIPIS
Protocol: The FLIPR assay is used to screen ion channel targets using membrane permeable fluorescent dyes. […]
as §2, §3

TRPC4 = biological target: T3, TRPC4 (Homo sapiens, UniProt Q9UBN4); test: FLIPR assay, TRPC4 activation; type: cell-based; conditions: 30 μM
T3 sequence (Q9UBN4 1-977): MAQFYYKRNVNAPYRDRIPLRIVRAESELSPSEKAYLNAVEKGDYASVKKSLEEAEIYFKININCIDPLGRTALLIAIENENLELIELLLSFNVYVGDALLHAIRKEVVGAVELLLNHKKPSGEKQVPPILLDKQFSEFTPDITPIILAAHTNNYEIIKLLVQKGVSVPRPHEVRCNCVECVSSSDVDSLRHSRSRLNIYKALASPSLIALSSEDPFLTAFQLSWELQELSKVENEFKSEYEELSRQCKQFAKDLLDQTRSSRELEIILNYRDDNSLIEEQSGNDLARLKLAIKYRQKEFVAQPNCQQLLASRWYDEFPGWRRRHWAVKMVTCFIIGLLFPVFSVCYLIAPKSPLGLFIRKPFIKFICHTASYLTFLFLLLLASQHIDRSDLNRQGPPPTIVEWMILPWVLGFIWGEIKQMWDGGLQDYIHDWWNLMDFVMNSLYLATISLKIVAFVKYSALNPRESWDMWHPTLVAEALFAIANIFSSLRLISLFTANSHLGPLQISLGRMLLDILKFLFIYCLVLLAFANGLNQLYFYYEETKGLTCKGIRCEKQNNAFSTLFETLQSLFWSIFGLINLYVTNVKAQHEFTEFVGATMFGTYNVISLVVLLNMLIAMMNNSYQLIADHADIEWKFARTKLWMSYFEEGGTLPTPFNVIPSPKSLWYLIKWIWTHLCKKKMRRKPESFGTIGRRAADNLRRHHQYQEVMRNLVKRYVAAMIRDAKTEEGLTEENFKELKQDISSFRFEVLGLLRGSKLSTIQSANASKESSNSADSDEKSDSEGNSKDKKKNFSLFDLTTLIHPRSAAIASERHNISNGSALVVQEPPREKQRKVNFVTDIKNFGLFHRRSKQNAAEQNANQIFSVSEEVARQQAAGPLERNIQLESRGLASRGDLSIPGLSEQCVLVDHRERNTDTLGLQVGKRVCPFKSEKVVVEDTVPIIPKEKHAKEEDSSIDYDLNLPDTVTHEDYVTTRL
Protocol: The FLIPR assay is used to screen ion channel targets using membrane permeable fluorescent dyes.
as §1, §2, §3
After 20 seconds IsoCsA, CsA or standard agonist are added to the wells and the fluorescence monitored for 5 minutes at ex./em.

[1] = mouse, in vivo
eye of healthy rabbits = conditions: rabbit, in vivo
[2] = 56 μM, reference agonist, considered equal to 0%
[3] = 2 μM, agonist, considered equal to 0%

Compound: NCCOB(c1ccccc1)c1ccccc1 [2-APB, 2-aminoetoxy diphenyl borate]
TRPV3 Inhibition % Mean (TRPV3; [2]): 0%
TRPV3 Inhibition % n = 1 (TRPV3; [2]): 0%
TRPV3 Inhibition % n = 2 (TRPV3; [2]): 0%

Compound: isocyclosporin A
tear secretion (tear secretion): significantly higher levels
TRPV3 Inhibition % Mean (TRPV3; 30 μM): 60.1%
TRPV3 Inhibition % n = 1 (TRPV3; 30 μM): 63.7%
TRPV3 Inhibition % n = 2 (TRPV3; 30 μM): 56.5%
ability to antagonize TRPV3 relative to cyclosporin A (TRPV3; 30 μM): more than 4 fold
TRPML2 Inhibition % Mean (TRPML2; 30 μM): 71.2%
TRPML2 Inhibition % n = 1 (TRPML2; 30 μM): 63.9%
TRPML2 Inhibition % n = 2 (TRPML2; 30 μM): 78.5%
ability to antagonize TRPML2 in comparison with cyclosporin A (TRPML2; 30 μM): more than double
effect on activation of TRPC4 (TRPC4): does not have any effect on activation of this channel
mean level in Conjunctiva [1]: 20 ± 7 ng/mg
mean level in Cornea [1]: 15 ± 5 ng/mg
mean level in Intraocular tissues (combined) [1]: 2 ± 1 ng/mg
variability of tissue levels within different animals with the same treatment [1]: significantly lower variability
frequency of the winking (eye of healthy rabbits): 5±1

TRPV3 Inhibition % Mean (TRPV3; 100 μM, reference antagonist): 91.7%
TRPV3 Inhibition % n = 1 (TRPV3; 100 μM, reference antagonist): 90.2%
TRPV3 Inhibition % n = 2 (TRPV3; 100 μM, reference antagonist): 93.2%
Compound: N.N.N.N.N.N.N.N.N.N.N.N.N.N.[Cl-].[Cl-].[Cl-].[Cl-].[Cl-].[Cl-].[O-2].[O-2].[Ru+3].[Ru+3].[Ru+4] [RR, ruthenium red]

TRPML2 Inhibition % Mean (TRPML2; [3]): 0%
TRPML2 Inhibition % n = 1 (TRPML2; [3]): 0%
TRPML2 Inhibition % n = 2 (TRPML2; [3]): 0%
Compound: [Ca+2].[Cl-].[Cl-] [CaCl2]

Compound: [Gd+3] [Gd3, Gadolinium]
TRPML2 Inhibition % Mean (TRPML2; 4 mM, antagonist): 89.6%
TRPML2 Inhibition % n = 1 (TRPML2; 4 mM, antagonist): 88.2%
TRPML2 Inhibition % n = 2 (TRPML2; 4 mM, antagonist): 90.9%
